Experimental data reported in patent US10499640B2, “Herbicidal compounds” (SYNGENTA PARTICIPATIONS AG, priority 2014, dated 2019).

How the values were obtained:
Assay type in all cases: in vivo
[1] = test system: Abutilon theophrasti (ABUTH); test: Pre-emergence herbicidal activity, glasshouse pot test; design: key: 5=total damage to plant; 0=no damage to plant; details: Rate 1000 g/Ha; sprayed one day after sowing; evaluated after 13 days; scale 0-5
Procedure: (§1) Seeds of a variety of test species were sown in standard soil in pots. After cultivation for one day (pre-emergence) under controlled conditions in a glasshouse (at 24/16° C., day/night; 14 hours light; 65% humidity), the plants were sprayed with an aqueous spray solution derived from the formulation of the technical active ingredient in acetone/water (50:50) solution containing 0.5% Tween 20 (polyoxyethelyene sorbitan monolaurate, CAS RN 9005-64-5). The test plants were then grown in a glasshouse under controlled conditions (at 24/16° C., day/night; 14 hours light; 65% humidity) and watered twice daily. After 13 days, the test was evaluated (5=total damage to plant; 0=no damage to plant).

[2] = test system: Alopecurus myosuroides (ALOMY); test: as above; design: key: 5=total damage to plant; 0=no damage to plant; details: Rate 1000 g/Ha; sprayed one day after sowing; evaluated after 13 days; scale 0-5
Procedure: as §1

[3] = test system: Amaranthus retroflexus (AMARE); test: as above; design: key: 5=total damage to plant; 0=no damage to plant; details: Rate 1000 g/Ha; sprayed one day after sowing; evaluated after 13 days; scale 0-5
Procedure: as §1

[4] = test system: Echinochloa crus-galli (ECHCG); test: as above; design: key: 5=total damage to plant; 0=no damage to plant; details: Rate 1000 g/Ha; sprayed one day after sowing; evaluated after 13 days; scale 0-5
Procedure: as §1

Setaria faberi (SETFA) [5] = test: as above; design: key: 5=total damage to plant; 0=no damage to plant; details: Rate 1000 g/Ha; sprayed one day after sowing; evaluated after 13 days; scale 0-5
Procedure: as §1

Zea mays (ZEAMX) [6] = test: as above; details: Rate 1000 g/Ha; sprayed one day after sowing; evaluated after 13 days; scale 0-5
Procedure: as §1

[7] = test system: Abutilon theophrasti (ABUTH); test: Post-emergence herbicidal activity, glasshouse pot test; design: key: 5=total damage to plant; 0=no damage to plant; details: Rate 1000 g/Ha; sprayed after 8 days cultivation; evaluated after 13 days; scale 0-5
Procedure: (§2) Seeds of a variety of test species were sown in standard soil in pots. After 8 days cultivation (post-emergence) under controlled conditions in a glasshouse (at 24/16° C., day/night; 14 hours light; 65% humidity), the plants were sprayed with an aqueous spray solution derived from the formulation of the technical active ingredient in acetone/water (50:50) solution containing 0.5% Tween 20 (polyoxyethelyene sorbitan monolaurate, CAS RN 9005-64-5). The test plants were then grown in a glasshouse under controlled conditions (at 24/16° C., day/night; 14 hours light; 65% humidity) and watered twice daily. After 13 days, the test was evaluated (5=total damage to plant; 0=no damage to plant).

[8] = test system: Alopecurus myosuroides (ALOMY); test: as above; design: key: 5=total damage to plant; 0=no damage to plant; details: Rate 1000 g/Ha; sprayed after 8 days cultivation; evaluated after 13 days; scale 0-5
Procedure: as §2

[9] = test system: Amaranthus retroflexus (AMARE); test: as above; design: key: 5=total damage to plant; 0=no damage to plant; details: Rate 1000 g/Ha; sprayed after 8 days cultivation; evaluated after 13 days; scale 0-5
Procedure: as §2

[10] = test system: Echinochloa crus-galli (ECHCG); test: as above; design: key: 5=total damage to plant; 0=no damage to plant; details: Rate 1000 g/Ha; sprayed after 8 days cultivation; evaluated after 13 days; scale 0-5
Procedure: as §2

Setaria faberi (SETFA) [11] = test: as above; design: key: 5=total damage to plant; 0=no damage to plant; details: Rate 1000 g/Ha; sprayed after 8 days cultivation; evaluated after 13 days; scale 0-5
Procedure: as §2

Zea mays (ZEAMX) [12] = test: as above; design: key: 5=total damage to plant; 0=no damage to plant; details: Rate 1000 g/Ha; sprayed after 8 days cultivation; evaluated after 13 days; scale 0-5
Procedure: as §2

| Structure (SMILES) | ABUTH damage score, application pre-emergence [1] | ALOMY damage score, application pre-emergence [2] | AMARE damage score, application pre-emergence [3] | ECHCG damage score, application pre-emergence [4] | SETFA damage score, application pre-emergence (Setaria faberi (SETFA) [5]) | ZEAMX damage score, application pre-emergence (Zea mays (ZEAMX) [6]) | ABUTH damage score, application post-emergence [7] | ALOMY damage score, application post-emergence [8] | AMARE damage score, application post-emergence [9] | ECHCG damage score, application post-emergence [10] | SETFA damage score, application post-emergence (Setaria faberi (SETFA) [11]) | ZEAMX damage score, application post-emergence (Zea mays (ZEAMX) [12]) |
| --- | --- | --- | --- | --- | --- | --- | --- | --- | --- | --- | --- | --- |
| CC1C(O)N(c2cc(C(C)(C)C#N)on2)C(=O)N1C (stereo not drawn) [Compound A5] | 5 | 4 | 5 | 5 | 5 | 3 | 5 | 5 | 5 | 5 | 5 | 5 |
| CON1C(=O)N(c2cc(C(C)(C)F)on2)C(O)C1C (stereo not drawn) [Compound A1, 1-[5-(1-fluoro-1-methyl-ethyl)isoxazol-3-yl]-5-hydroxy-3-methoxy-4-methyl-imidazolidin-2-one] | 5 | 4 | 5 | 4 | 4 | 2 | 5 | 5 | 5 | 5 | 5 | 5 |
| CC(C)(C)c1cc(N2C(=O)N3CCCCC3C2O)no1 (stereo not drawn) [Compound A26] | 5 | 4 | 5 | 4 | 4 | 3 | 5 | 5 | 5 | 5 | 5 | 5 |
| CN1CC(O)N(c2cc(C(C)(C)F)on2)C1=O (stereo not drawn) [Compound A3] | 5 | 4 | 5 | 5 | 4 | 2 | 5 | 5 | 5 | 5 | 5 | 5 |
| CN1CC(O)N(c2cc(C(C)(C)C#N)on2)C1=O (stereo not drawn) [Compound A4] | 5 | 4 | 5 | 5 | 5 | 4 | 5 | 5 | 5 | 5 | 5 | 5 |
| CC(C)(C#N)c1cc(N2C(=O)NCC2O)no1 (stereo not drawn) [Compound A8] | 5 | 0 | 5 | 1 | 1 | 1 | 5 | 2 | 4 | 3 | 3 | 1 |
| CC1C(O)N(c2cc(C(C)(C)F)on2)C(=O)N1C (stereo not drawn) [Compound A2, 1-[5-(1-fluoro-1-methyl-ethyl)isoxazol-3-yl]-5-hydroxy-3,4-dimethyl-imidazolidin-2-one] | 5 | 4 | 5 | 4 | 4 | 2 | 5 | 5 | 5 | 5 | 5 | 5 |
| CC1NC(=O)N(c2cc(C(C)(C)C#N)on2)C1O (stereo not drawn) [Compound A7] | 5 | 4 | 5 | 4 | 4 | 2 | 5 | 4 | 5 | 4 | 4 | 3 |
